Where two headings read alike, the source gives them in different places.
Tests used:
[1] = system: HBV viral load in AD38 cells; test: Viral load production in AD38 cells, quantitative PCR of the core sequence in supernatant; assay type: cell-based; conditions: for activity at 10 µM: Hepatitis B virus, 144 h, read-out: AD38 Viral Load (%) (VL with cmpd/VL in DMSO control) at 10 μM
AD38 cells = test: Viability of AD38 cells (Promega CellTiter-Glo); assay type: cell-based; conditions: 10 μM compound, 6 days, CellTiter-Glo luminescence normalized to DMSO control (100%)
Procedure, shortened: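 AD38 cells were seeded at 50,000/well on collagen-coated plates and treated with compound added as a 10× solution in 10% DMSO for 6 days at 37° C. Viability was measured by CellTiter-Glo luminescence in tetracycline-free medium with 2% FBS and 1% DMSO, and expressed as percent of DMSO control.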

[2] = 10 μM compound, 6 days at 37° C., supernatant qPCR, relative to DMSO control

Compound	activity at 10 µM [1, 2]	AD38 Viability Normalized Result (cmpd/DMSO %) at 10 μM (AD38 cells)	activity at 10 µM [1]	AD38 Viral Load (%) (VL with cmpd/VL in DMSO control) at 10 μM [1, 2]
O=C(NCc1cnc(Cc2ccc(O)cc2)s1)c1ccc2c(c1)NC(=O)c1ccccc1O2 [compound 1835, N-((2-(4-hydroxybenzyl)thiazol-5-yl)methyl)-11-oxo-10, 11-dihydrodibenzo [b, f] [1, 4] oxazepine-8-carboxamide]	12.3%	94%		
O=C(NCc1cnc(-c2ccc(OCCC[N+]34CCC(CC3)CC4)cc2)s1)c1ccc2c(c1)NC(=O)c1ccccc1S2(=O)=O.[Br-] [compound 11108, 1-(3-(4-(5-((5,5-dioxido-11-oxo-10, 11-dihydrodibenzo [b, f] [1, 4]thiazepine-8-carboxamido)methyl)thiazol-2-yl)phenoxy)propyl) quinuclidin-1-ium bromide]		95%	11.2%	
O=C(NCc1cnc(-c2ccc(OCCCN3CCCCC3)cc2)s1)c1ccc2c(c1)NC(=O)c1ccccc1S2(=O)=O [compound 1992]	5%	89%		
Cn1ccc(-c2ncc(CNC(=O)c3ccc4c(c3)NC(=O)c3ccccc3S4(=O)=O)s2)n1 [compound 11046]	0.9%	100%		
O=C(NCc1cnc(-c2ccccc2CO)s1)c1ccc2c(c1)NC(=O)c1ccccc1S2(=O)=O [compound 1838]	1.4%	113%		
O=C(NCc1cnc(N2CCOCC2)s1)c1ccc2c(c1)NC(=O)c1ccccc1O2 [compound 1611]	1.4%	100%		
CS(=O)(=O)c1ccc(-c2ncc(CNC(=O)c3ccc4c(c3)NC(=O)c3ccccc3O4)s2)cc1 [compound 1861]	5.9%	94%		
CC(C)(C)c1ncc(CNC(=O)c2ccc3c(c2)NC(=O)c2ccccc2S3(=O)=O)s1 [compound 1550]	4%	96%		
CN(C)c1ncc(-c2ncc(CNC(=O)c3ccc4c(c3)NC(=O)c3ccccc3S4(=O)=O)s2)cn1 [compound 1675]	2.3%	115%		
O=C(NCc1cnc(N2CCOCC2)s1)c1ccc2c(c1)NC(=O)c1ccccc1S2 [compound 1598]	1.4%	97%		
O=C(NCc1cnc(C(F)(F)F)s1)c1ccc2c(c1)NC(=O)c1ccccc1[S+]2[O-] (centres unmarked) [compound 1772]	7.1%	109%		
CN(C)CCCOc1ccc(-c2ncc(CNC(=O)c3ccc4c(c3Cl)NC(=O)c3ccccc3S4(=O)=O)s2)cc1 [C51-01]	0.4%	99%		
CN1CCN(c2ncc(CNC(=O)c3ccc4c(c3)NC(=O)c3ccccc3O4)s2)CC1 [compound 1694]	61.1%	91%		
O=C(NCc1cnc(-c2ccc3[nH]cnc3c2)s1)c1ccc2c(c1)NC(=O)c1ccccc1S2(=O)=O [compound 1637]	2.3%	101%		
CS(=O)(=O)Nc1ccc(-c2ncc(CNC(=O)c3ccc4c(c3)NC(=O)c3ccccc3O4)s2)cc1 [compound 1863]	9.4%	106%		
N#Cc1ccc(-c2ncc(CNC(=O)c3ccc4c(c3)NC(=O)c3ccccc3S4(=O)=O)s2)cc1Cl [compound 1817]	0.3%	97%		
O=C(NCc1cnc(-c2cc[nH]n2)s1)c1ccc2c(c1)NC(=O)c1ccccc1S2(=O)=O [compound 1959]	5%	92%		
CN1CCC(COc2ccc(-c3ncc(CNC(=O)c4ccc5c(c4)NC(=O)c4ccccc4S5(=O)=O)s3)cc2)CC1.Cl [compound 11138, N-((2-(4-((1-methylpiperidin-4-yl)methoxy)phenyl)thiazol-5-yl)methyl)-11-oxo-10, 11-dihydrodibenzo [b, f] [1, 4] thiazepine-8-carboxamide 5,5-dioxide hydrochloride]	1%	96%		
CC(=O)NCCCOc1ccc(-c2ncc(CNC(=O)c3ccc4c(c3)NC(=O)c3ccccc3S4(=O)=O)s2)cc1 [compound 1991]	2%	98%		

Compound	activity at 10 µM [1, 2]	AD38 Viability Normalized Result (cmpd/DMSO %) at 10 μM (AD38 cells)	activity at 10 µM [1]	AD38 Viral Load (%) (VL with cmpd/VL in DMSO control) at 10 μM [1, 2]
O=C(NCc1cnc(-c2ccc(O)cc2)s1)c1ccc2c(c1)NC(=O)c1ccccc1C2 [compound 1734]	10.6%	96%		
O=C(Nc1ncc(Cl)s1)c1ccc2c(c1)NC(=O)c1ccccc1S2(=O)=O [compound 1473]	26.5%	79%		
COc1ccc(-c2ncc(CNC(=O)c3ccc4c(c3)NC(=O)c3ccccc3O4)s2)cc1 [compound 1619]	1.3%	95%		
COc1cc2c(cc1C(=O)NCc1cnc(-c3ccc(C#N)cc3)s1)NC(=O)c1ccccc1S2(=O)=O [1901-A, N-((2-(4-cyanophenyl)thiazol-5-yl)methyl)-7-methoxy-11-oxo-10, 11-dihydrodibenzo [b, f] [1, 4] thiazepine-8-carboxamide 5,5-dioxide]	3%	118%		
N#Cc1cccc(-c2ncc(CNC(=O)c3ccc4c(c3)NC(=O)c3ccccc3S4(=O)=O)s2)c1 [1677-A, N-((2-(3-cyanophenyl)thiazol-5-yl)methyl)-11-oxo-10, 11-dihydrodibenzo [b, f] [1, 4] thiazepine-8-carboxamide 5,5-dioxide]	2.3%	103%		
O=C(NCc1cnc(-c2ccncc2)s1)c1ccc2c(c1)NC(=O)c1ccccc1S2(=O)=O [compound 1625]	51.9%	96%		
O=C(NCc1cnc(-c2ccc(O)cc2)s1)c1ccc2c(c1)NC(=O)c1ccc(Cl)cc1S2 [compound 1761]	10.7%	97%		
Cl.O=C(NCc1cnc(-c2ccc(N3CCNCC3)nc2)s1)c1ccc2c(c1)NC(=O)c1ccccc1S2(=O)=O [compound 11019, 11-oxo-N-((2-(6-(piperazin-1-yl)pyridin-3-yl)thiazol-5-yl)methyl)-10, 11-dihydrodibenzo [b, f] [1, 4] thiazepine-8-carboxamide 5,5-dioxide hydrochloride]	14.3%	93%		
O=C(NCc1cnc(N2CCCCCC2)s1)c1ccc2c(c1)NC(=O)c1ccccc1S2(=O)=O [compound 1907]	0.5%	85%		
Cc1c(C(=O)NCc2cnc(-c3ccc(OCCCN(C)C)cc3)s2)ccc2c1NC(=O)c1ccccc1S2(=O)=O [C38-01]	1.3%	99%		
O=C(NCc1cnc(-c2ccccc2)s1)c1ccc2c(=O)c3ccccc3c(=O)[nH]c2c1 [compound 1594]	0.9%	105%		
N#Cc1ccc(-c2ncc(CNC(=O)c3ccc4c(c3)NC(=O)c3ccccc3S4(=O)=O)s2)c(Cl)c1 [compound 1816]	0.2%	82%		
CC(C)(C)OC(=O)NCCCSc1ccc(-c2ncc(CNC(=O)c3ccc4c(c3)NC(=O)c3ccccc3S4(=O)=O)s2)cc1 [11007-A, tert-butyl (3-((4-(5-((5,5-dioxido-11-oxo-10, 11-dihydrodibenzo [b, f] [1, 4]thiazepine-8-carboxamido)methyl)thiazol-2-yl)phenyl)thio)propyl) carbamate]		75%		0.9%
O=C(NCc1cnc(-c2ccc3[nH]ccc3c2)s1)c1ccc2c(c1)NC(=O)c1ccccc1O2 [compound 1696]	0.8%	109%		
CN(C)CCCOc1ncc(CNC(=O)c2ccc3c(c2)NC(=O)c2ccccc2O3)s1 [compound 1691, N-((2-(3-(dimethylamino)propoxy)thiazol-5-yl)methyl)-11-oxo-10, 11-dihydrodibenzo [b, f] [1, 4] oxazepine-8-carboxamide]	77.1%	89%		
N#Cc1ccc(-c2ncc(CNC(=O)c3cc4c(cc3O)S(=O)(=O)c3ccccc3C(=O)N4)s2)cc1 [1901-B, N-((2-(4-cyanophenyl)thiazol-5-yl)methyl)-7-hydroxy-11-oxo-10, 11-dihydrodibenzo [b, f] [1, 4] thiazepine-8-carboxamide 5,5-dioxide]	69.4%	108%		
O=C(NCc1cnc(-c2ccccc2CCO)s1)c1ccc2c(c1)NC(=O)c1ccccc1S2(=O)=O [compound 1839, N-((2-(2-(2-hydroxyethyl)phenyl)thiazol-5-yl)methyl)-11-oxo-10, 11-dihydrodibenzo [b, f] [1, 4] thiazepine-8-carboxamide 5,5-dioxide]	6.6%	96%		
O=C1Nc2c(ccc(C(=O)NCc3cnc(-n4cccn4)s3)c2Cl)S(=O)(=O)c2ccccc21 [C51-02]	0.2%	98%		
